# According to publication PMC5218480 (PLoS ONE, 2017):
# Tested on: MV-4-11 cells
# Experiment: Gene expression microarray analysis (Affymetrix PrimeView) and GSEA
# Type: cell-based, human
# Set-up: RFU PODN (11730768_x_at) / Fold change /veh PODN (11730768_x_at) / RFU LINC00158 (11744669_a_at) / Fold change /veh LINC00158 (11744669_a_at) / RFU DUSP10 (11751237_a_at) / Fold change /veh DUSP10 (11751237_a_at) / RFU ID3 (11757404_x_at) / Fold change /veh ID3 (11757404_x_at) / RFU PLEKHG5 (11737974_s_at) / Fold change /veh PLEKHG5 (11737974_s_at) / RFU LRRC4B (11730491_at) / Fold change /veh LRRC4B (11730491_at) / RFU GIMAP4 (11747438_a_at) / Fold change /veh GIMAP4 (11747438_a_at) / RFU KRT8 (11758183_x_at) / Fold change /veh KRT8 (11758183_x_at) / RFU CNN1 (11734310_a_at) / Fold change /veh CNN1 (11734310_a_at) / RFU VPS37D (11726825_at) / Fold change /veh VPS37D (11726825_at) / RFU C10orf10 (11716522_x_at) / Fold change /veh C10orf10 (11716522_x_at) / RFU KIR2DL2 /// KIR2DL4 /// KIR2DL5A /// KIR2DL5B /// KIR2DS1 /// KIR2DS2 /// KIR2DS3 /// KIR2DS4 /// KIR3DL3 /// KIR3DL3 /// KIR3DS1 (11738374_at) / Fold change /veh KIR2DL2 /// KIR2DL4 /// KIR2DL5A /// KIR2DL5B /// KIR2DS1 /// KIR2DS2 /// KIR2DS3 /// KIR2DS4 /// KIR3DL3 /// KIR3DL3 /// KIR3DS1 (11738374_at) / RFU C1QL1 (11718748_at) / Fold change /veh C1QL1 (11718748_at) / RFU TMPRSS4 (11747572_a_at) / Fold change /veh TMPRSS4 (11747572_a_at) / RFU HAMP (11756126_x_at) / Fold change /veh HAMP (11756126_x_at) / RFU RNFT2 (11725882_a_at) / Fold change /veh RNFT2 (11725882_a_at) / RFU NR4A2 (11747474_a_at) / Fold change /veh NR4A2 (11747474_a_at) / RFU ABCC12 (11746883_a_at) / Fold change /veh ABCC12 (11746883_a_at) / RFU TMEM136 (11760407_x_at) / Fold change /veh TMEM136 (11760407_x_at) / RFU CLDN22 /// WWC2 (11732394_at) / Fold change /veh CLDN22 /// WWC2 (11732394_at) / RFU HLA-DPB1 (11760878_x_at) / Fold change /veh HLA-DPB1 (11760878_x_at) / RFU SPINT1 (11716480_a_at) / Fold change /veh SPINT1 (11716480_a_at) / RFU GAP43 (11754022_s_at) / Fold change /veh GAP43 (11754022_s_at) / RFU A4GNT (11735810_at) / Fold change /veh A4GNT (11735810_at) / RFU PRB3 (11715151_x_at) / Fold change /veh PRB3 (11715151_x_at) / RFU TUBB4B (11761932_at) / Fold change /veh TUBB4B (11761932_at) / RFU CAPN14 (11732068_a_at) / Fold change /veh CAPN14 (11732068_a_at) / RFU TMCC2 (11721928_a_at) / Fold change /veh TMCC2 (11721928_a_at) / RFU IRGQ (11745062_a_at) / Fold change /veh IRGQ (11745062_a_at) / RFU FAM174B (11720279_a_at) / Fold change /veh FAM174B (11720279_a_at) / RFU TMPRSS4 (11748680_a_at) / Fold change /veh TMPRSS4 (11748680_a_at) / RFU FAM212B (11763350_a_at) / Fold change /veh FAM212B (11763350_a_at) / RFU PLEKHG5 (11743358_a_at) / Fold change /veh PLEKHG5 (11743358_a_at) / RFU ZSCAN30 (11745921_a_at) / Fold change /veh ZSCAN30 (11745921_a_at) / RFU CMKLR1 (11741424_a_at) / Fold change /veh CMKLR1 (11741424_a_at) / RFU LOC101060620 /// MAPK8IP1 (11723275_at) / Fold change /veh LOC101060620 /// MAPK8IP1 (11723275_at) / RFU SPTSSB (11747773_x_at) / Fold change /veh SPTSSB (11747773_x_at) / RFU PRSS12 (11739890_at) / Fold change /veh PRSS12 (11739890_at) / RFU BIN1 (11741810_x_at) / Fold change /veh BIN1 (11741810_x_at) / RFU WNT11 (11732464_a_at) / Fold change /veh WNT11 (11732464_a_at) / RFU C10orf10 (11716521_a_at) / Fold change /veh C10orf10 (11716521_a_at) / RFU C5orf56 (11738089_at) / Fold change /veh C5orf56 (11738089_at) / RFU CYB561 (11721691_x_at) / Fold change /veh CYB561 (11721691_x_at) / RFU ANKRD19P (11752326_a_at) / Fold change /veh ANKRD19P (11752326_a_at) / RFU OR2T12 /// OR2T33 /// OR2T8 (11738714_s_at) / Fold change /veh OR2T12 /// OR2T33 /// OR2T8 (11738714_s_at) / RFU VCAN (11748164_a_at) / Fold change /veh VCAN (11748164_a_at) / RFU JSRP1 (11732532_at) / Fold change /veh JSRP1 (11732532_at) / RFU KRTAP10-11 (11738290_x_at) / Fold change /veh KRTAP10-11 (11738290_x_at) / RFU MYO3A (11730013_a_at) / Fold change /veh MYO3A (11730013_a_at) / RFU EBF3 (11725865_a_at) / Fold change /veh EBF3 (11725865_a_at) / RFU CAMK2N1 (11719241_x_at) / Fold change /veh CAMK2N1 (11719241_x_at) / RFU C5orf56 (11738088_a_at) / Fold change /veh C5orf56 (11738088_a_at) / RFU OLFML3 (11715873_a_at) / Fold change /veh OLFML3 (11715873_a_at) / RFU LOC100653217 /// NTM (11731650_a_at) / Fold change /veh LOC100653217 /// NTM (11731650_a_at) / RFU MAPK11 (11762145_a_at) / Fold change /veh MAPK11 (11762145_a_at) / RFU FIZ1 (11724087_x_at) / Fold change /veh FIZ1 (11724087_x_at) / RFU OASL (11726364_x_at) / Fold change /veh OASL (11726364_x_at) / RFU SOX15 (11748057_x_at) / Fold change /veh SOX15 (11748057_x_at) / RFU CD79A (11719716_a_at) / Fold change /veh CD79A (11719716_a_at) / RFU HIST1H1D (11736915_at) / Fold change /veh HIST1H1D (11736915_at) / RFU CASKIN2 (11723855_a_at) / Fold change /veh CASKIN2 (11723855_a_at) / RFU LOC730098 (11760151_x_at) / Fold change /veh LOC730098 (11760151_x_at) / RFU OR4N2 (11742367_at) / Fold change /veh OR4N2 (11742367_at) / RFU PRRT2 (11749266_a_at) / Fold change /veh PRRT2 (11749266_a_at) / RFU SNX32 (11753110_a_at) / Fold change /veh SNX32 (11753110_a_at) / RFU CDHR5 (11726645_a_at) / Fold change /veh CDHR5 (11726645_a_at) / RFU RCAN1 (11760418_a_at) / Fold change /veh RCAN1 (11760418_a_at) / RFU FAM167A (11723789_a_at) / Fold change /veh FAM167A (11723789_a_at) / RFU FAM26E (11764081_at) / Fold change /veh FAM26E (11764081_at) / RFU ISYNA1 (11749810_s_at) / Fold change /veh ISYNA1 (11749810_s_at) / RFU ACY1 (11761880_at) / Fold change /veh ACY1 (11761880_at) / RFU 11764098_at / Fold change /veh 11764098_at / RFU SAMD14 (11745864_x_at) / Fold change /veh SAMD14 (11745864_x_at) / RFU NPB (11741838_a_at) / Fold change /veh NPB (11741838_a_at) / RFU TMPRSS6 (11731388_a_at) / Fold change /veh TMPRSS6 (11731388_a_at) / RFU KRTAP10-2 (11738614_at) / Fold change /veh KRTAP10-2 (11738614_at) / RFU ARHGAP8 /// PRR5-ARHGAP8 (11727945_x_at) / Fold change /veh ARHGAP8 /// PRR5-ARHGAP8 (11727945_x_at) / RFU KRTAP5-7 /// NADSYN1 (11734609_at) / Fold change /veh KRTAP5-7 /// NADSYN1 (11734609_at) / RFU RASL12 (11751679_a_at) / Fold change /veh RASL12 (11751679_a_at) / RFU CDKN2B (11736163_a_at) / Fold change /veh CDKN2B (11736163_a_at) / RFU PRF1 (11729649_at) / Fold change /veh PRF1 (11729649_at) / RFU, ZNF638 /// ZNF638-IT1 / Fold change vs veh, ZNF638 /// ZNF638-IT1 / RFU, PANK3 / Fold change vs veh, PANK3 / RFU, SH3YL1 / Fold change vs veh, SH3YL1 / RFU, ZEB2 / Fold change vs veh, ZEB2 / RFU, NRIP1 / Fold change vs veh, NRIP1 / RFU, PTTG1IP / Fold change vs veh, PTTG1IP / RFU, CAPN2 / Fold change vs veh, CAPN2 / RFU, MED14 / Fold change vs veh, MED14 / RFU, SNORA58 / Fold change vs veh, SNORA58 / RFU, C1orf63 / Fold change vs veh, C1orf63 / RFU, LRRFIP1 / Fold change vs veh, LRRFIP1 / RFU, NDUFAF7 / Fold change vs veh, NDUFAF7 / RFU, SLC12A2 / Fold change vs veh, SLC12A2 / RFU, IBTK / Fold change vs veh, IBTK / RFU, ESF1 / Fold change vs veh, ESF1 / Fold change vs veh, TMEM50B / RFU, TAOK1 / Fold change vs veh, TAOK1 / RFU, ACBD3 / Fold change vs veh, ACBD3 / RFU, TMA16 / Fold change vs veh, TMA16 / RFU, RWDD3 / Fold change vs veh, RWDD3 / RFU, BCAT1 / Fold change vs veh, BCAT1 / RFU, EDEM3 / Fold change vs veh, EDEM3 / RFU, TMEM33 / Fold change vs veh, TMEM33 / RFU, WDR75 / Fold change vs veh, WDR75 / RFU, AHCTF1 / Fold change vs veh, AHCTF1 / RFU, TFRC / Fold change vs veh, TFRC / RFU, ZDHHC17 / Fold change vs veh, ZDHHC17 / RFU, NOM1 / Fold change vs veh, NOM1 / RFU, ARL8B / Fold change vs veh, ARL8B / RFU, ZBTB11 / Fold change vs veh, ZBTB11 / RFU, TAMM41 / Fold change vs veh, TAMM41 / RFU, KIAA1704 /// LOC100996395 / Fold change vs veh, KIAA1704 /// LOC100996395 / RFU, ING1 / Fold change vs veh, ING1 / RFU, TRMT61B / Fold change vs veh, TRMT61B / RFU, FUBP3 / Fold change vs veh, FUBP3 / RFU, TP53 / Fold change vs veh, TP53 / RFU, TNKS2 / Fold change vs veh, TNKS2 / RFU, ZFP14 / Fold change vs veh, ZFP14 / RFU, ACTR2 / Fold change vs veh, ACTR2 / RFU, PPP3R1 / Fold change vs veh, PPP3R1 / RFU, PIK3R1 / Fold change vs veh, PIK3R1 / RFU, HNRNPA1 / Fold change vs veh, HNRNPA1 / RFU, RNF170 / Fold change vs veh, RNF170 / RFU, ZNF28 / Fold change vs veh, ZNF28 / RFU, RNGTT / Fold change vs veh, RNGTT / RFU, OGT / Fold change vs veh, OGT / RFU, BRD1 / Fold change vs veh, BRD1 / RFU, MARS / Fold change vs veh, MARS / RFU, ZNF655 / Fold change vs veh, ZNF655 / RFU, FAHD1 / Fold change vs veh, FAHD1 / RFU, BDP1 / Fold change vs veh, BDP1 / RFU, LRRCC1 / Fold change vs veh, LRRCC1 / RFU, ARID1A / Fold change vs veh, ARID1A / RFU, ZNF146 / Fold change vs veh, ZNF146 / RFU, ZNF330 / Fold change vs veh, ZNF330 / RFU, GPN3 / Fold change vs veh, GPN3 / RFU, C9orf123 / Fold change vs veh, C9orf123 / RFU, N4BP2L2 / Fold change vs veh, N4BP2L2 / RFU, ARFIP1 / Fold change vs veh, ARFIP1 / RFU, FAM179B / Fold change vs veh, FAM179B / RFU, BCL10 / Fold change vs veh, BCL10 / RFU, UHRF1BP1L / Fold change vs veh, UHRF1BP1L / RFU, BET1 / Fold change vs veh, BET1 / RFU, CNOT2 / Fold change vs veh, CNOT2 / RFU, ZNF268 / Fold change vs veh, ZNF268 / Fold change vs veh, ZNF507 / RFU, DGCR2 / Fold change vs veh, DGCR2 / RFU, WDSUB1 / Fold change vs veh, WDSUB1 / Fold change vs veh, HSP90B1 /// MIR3652 / RFU, ADSS / Fold change vs veh, ADSS / RFU, GK / Fold change vs veh, GK / RFU, ZNF148 / Fold change vs veh, ZNF148 / RFU, TAF9 / Fold change vs veh, TAF9 / RFU, SLC1A5 / Fold change vs veh, SLC1A5 / RFU, SLMO2 / Fold change vs veh, SLMO2 / RFU, ABCC4 / Fold change vs veh, ABCC4 / RFU, LOC101060439 /// RAP1B / Fold change vs veh, LOC101060439 /// RAP1B / RFU, RFX7 / Fold change vs veh, RFX7 / RFU, GTPBP10 / Fold change vs veh, GTPBP10 / RFU, CNEP1R1 / Fold change vs veh, CNEP1R1 / RFU, BIVM-ERCC5 /// ERCC5 / Fold change vs veh, BIVM-ERCC5 /// ERCC5 / RFU, ILF3 / Fold change vs veh, ILF3 / RFU 11762660_at / Fold change /veh 11762660_at / RFU VCAN (11757783_s_at) / Fold change /veh VCAN (11757783_s_at) / RFU DDX43 (11728927_at) / Fold change /veh DDX43 (11728927_at) / RFU KRT8 (11758188_x_at) / Fold change /veh KRT8 (11758188_x_at) / RFU NKD1 (11759106_at) / Fold change /veh NKD1 (11759106_at) / RFU SRD5A1 (11742802_a_at) / Fold change /veh SRD5A1 (11742802_a_at) / RFU TPSAB1 /// TPSB2 (11721975_s_at) / Fold change /veh TPSAB1 /// TPSB2 (11721975_s_at) / RFU GSTM3 (11746129_a_at) / Fold change /veh GSTM3 (11746129_a_at) / RFU IL23R (11737362_x_at) / Fold change /veh IL23R (11737362_x_at) / RFU TMEM51 (11727254_a_at) / Fold change /veh TMEM51 (11727254_a_at) / RFU PIWIL2 (11732686_x_at) / Fold change /veh PIWIL2 (11732686_x_at) / RFU ORM1 (11744905_x_at) / Fold change /veh ORM1 (11744905_x_at) / RFU CCDC152 (11743942_at) / Fold change /veh CCDC152 (11743942_at) / RFU ECM1 (11717891_a_at) / Fold change /veh ECM1 (11717891_a_at) / RFU IL23R (11748794_a_at) / Fold change /veh IL23R (11748794_a_at) / RFU TNFAIP8L3 (11732012_x_at) / Fold change /veh TNFAIP8L3 (11732012_x_at) / RFU MBOAT4 (11741988_at) / Fold change /veh MBOAT4 (11741988_at) / RFU 11764193_at / Fold change /veh 11764193_at / RFU TMEM53 (11763286_at) / Fold change /veh TMEM53 (11763286_at) / RFU MAGEB2 (11727129_at) / Fold change /veh MAGEB2 (11727129_at) / RFU TMEM200A (11744735_a_at) / Fold change /veh TMEM200A (11744735_a_at) / RFU CCDC152 (11751479_a_at) / Fold change /veh CCDC152 (11751479_a_at) / RFU FAM211A (11726209_a_at) / Fold change /veh FAM211A (11726209_a_at) / RFU RGS16 (11746705_a_at) / Fold change /veh RGS16 (11746705_a_at) / RFU VCAN (11755009_s_at) / Fold change /veh VCAN (11755009_s_at) / RFU RHOB (11743442_s_at) / Fold change /veh RHOB (11743442_s_at) / RFU RGS16 (11720943_a_at) / Fold change /veh RGS16 (11720943_a_at) / RFU RGS16 (11720944_at) / Fold change /veh RGS16 (11720944_at) / RFU, VPS4B / Fold change vs veh, VPS4B / RFU, CREB1 / Fold change vs veh, CREB1 / RFU, DNAJC13 / Fold change vs veh, DNAJC13 / RFU, GNAQ / Fold change vs veh, GNAQ / RFU, CDK5R1 / Fold change vs veh, CDK5R1 / RFU, ZRANB3 / Fold change vs veh, ZRANB3 / RFU, CUL4A / Fold change vs veh, CUL4A / RFU, CCNY / Fold change vs veh, CCNY / RFU, UFL1 / Fold change vs veh, UFL1 / RFU, COG3 / Fold change vs veh, COG3 / RFU, DIAPH2 / Fold change vs veh, DIAPH2 / RFU, SKA2 / Fold change vs veh, SKA2 / RFU, AFF3 / Fold change vs veh, AFF3 / RFU, LMF1 / Fold change vs veh, LMF1 / RFU, IPO11 / Fold change vs veh, IPO11 / RFU, DFFB / Fold change vs veh, DFFB / RFU, FOXP1 / Fold change vs veh, FOXP1 / RFU, CARD8 / Fold change vs veh, CARD8 / RFU, STRN3 / Fold change vs veh, STRN3 / RFU, ADK / Fold change vs veh, ADK / RFU, RASSF2 / Fold change vs veh, RASSF2 / RFU, WIPF1 / Fold change vs veh, WIPF1 / RFU, LARP1B / Fold change vs veh, LARP1B / RFU, RASA1 / Fold change vs veh, RASA1 / RFU, RB1 / Fold change vs veh, RB1 / RFU, PPFIA1 / Fold change vs veh, PPFIA1 / RFU, MAT2A / Fold change vs veh, MAT2A / RFU, CCT5 / Fold change vs veh, CCT5 / RFU, WDR92 / Fold change vs veh, WDR92 / RFU, CUX1 / Fold change vs veh, CUX1 / RFU, TTC7A / Fold change vs veh, TTC7A / RFU, TMEM135 / Fold change vs veh, TMEM135 / RFU, DEPTOR / Fold change vs veh, DEPTOR / RFU, CPM / Fold change vs veh, CPM / RFU, DNAJB6 / Fold change vs veh, DNAJB6 / RFU, CACNA2D3 / Fold change vs veh, CACNA2D3 / RFU, DTX4 / Fold change vs veh, DTX4 / RFU, TFCP2 / Fold change vs veh, TFCP2 / RFU, GMCL1 /// GMCL1P1 / Fold change vs veh, GMCL1 /// GMCL1P1 / RFU, AEBP2 / Fold change vs veh, AEBP2 / RFU, SNHG1 /// SNORD22 /// SNORD25 /// SNORD26 /// SNORD27 /// SNORD28 /// SNORD29 /// SNORD31 / Fold change vs veh, SNHG1 /// SNORD22 /// SNORD25 /// SNORD26 /// SNORD27 /// SNORD28 /// SNORD29 /// SNORD31 / Fold change (Aza/veh), C12orf56 (ProbeSet 11735607_a_at) / Fold change (ACY-1035/veh), C12orf56 (ProbeSet 11735607_a_at) / Fold change (Aza/veh), FGFR1OP (ProbeSet 11751329_s_at) / Fold change (ACY-1035/veh), FGFR1OP (ProbeSet 11751329_s_at) / Fold change (Aza/veh), VPS36 (ProbeSet 11739960_a_at) / Fold change (ACY-1035/veh), VPS36 (ProbeSet 11739960_a_at) / RFU SYPL1 (11715823_x_at) / Fold change /veh SYPL1 (11715823_x_at) / RFU IGFBP7 (11715501_s_at) / Fold change /veh IGFBP7 (11715501_s_at) / RFU REEP3 (11722064_at) / Fold change /veh REEP3 (11722064_at) / RFU IGLL1 (11728026_x_at) / Fold change /veh IGLL1 (11728026_x_at): dose or concentration left out as unconfirmed
# Settings: ProbeSet 11730252_s_at; LIST B
compound,measurement,value
Nc1ncn([C@@H]2O[C@H](CO)[C@@H](O)[C@H]2O)c(=O)n1 [azacitidine],"RFU, AHCTF1",220.95 RFU
